According to patent US10907158B2, “Antisense antibacterial compounds and methods” (priority 2015, dated 2021):

Legend:
E. coli BW25113 = assay type: cell-based; details: Pip/Tazo alone, 18 h, MHII
NDM-1 strains = assay: MIC of meropenem in various concentrations of NDM-1 PPMO; assay type: cell-based, K. pneumoniae; details: Klebsiella pneumoniae; meropenem without PPMO
K. pneumoniae = assay: MIC of meropenem in various concentrations of KPC PPMO; details: Klebsiella pneumoniae, read-out: MIC of meropenem
Pseudomonas aeruginosa = details: 18 hours
Description: Strains were grown on MSEC biofilm plates for 18 hours in the presence of PMBN at 2 μg/ml and the PPMO, a scrambled PPMO or nothing. The numbers in each cell represent the concentration of PPMO that reduced biofilm by 50% or greater.
Pseudomonas biofilms were grown in the presence or absence of PPMOs (as indicated). Biofilms were grown for 18 hours and then stained with crystal violet. Three strains were tested with multiple PPMO doses as shown. Percent reduction compared to no PPMO control is shown.
Polymyxin B nonapeptide (PMBN) was used at sub-inhibitory concentrations to enhance delivery of PPMOs in Pseudomonas.

For Piperacillin/Tazobactam [Pip/Tazo], the MIC (E. coli BW25113) was 4 µg/mL.

For C[C@@H](O)[C@H]1C(=O)N2C(C(=O)O)=C(S[C@@H]3CN[C@H](C(=O)N(C)C)C3)[C@H](C)[C@H]12 [meropenem], the MIC (NDM-1 strains) was 64 µg/mL and the MIC (K. pneumoniae) was 32 µg/mL.

With Polymyxin B nonapeptide [PMBN] the “effect on biofilm formation” value (Pseudomonas aeruginosa) was “did not significantly alter biofilm formation”.
